Assay [1] has as its system Opioid receptors; mu & delta. Description: Selectivity ratio against mu opioid receptor to that of delta opioid receptor was determined.
Assay [2] concerns the target Delta-type opioid receptor (Mus musculus, UniProt P32300). Nature of the assay: Concentration required for 50% inhibition of electrically induced contraction of the mouse vas deferens mediated through delta opioid receptor. The class given is functional.
For another assay, the target named is Mu-type opioid receptor (Cavia porcellus, UniProt P97266). Description: Concentration required for 50% inhibition of electrically induced contraction of the guinea pig ileum mediated through mu opioid receptor. The class given is functional, tissue-based.
Sequence of Mu-type opioid receptor (P97266 whole entry): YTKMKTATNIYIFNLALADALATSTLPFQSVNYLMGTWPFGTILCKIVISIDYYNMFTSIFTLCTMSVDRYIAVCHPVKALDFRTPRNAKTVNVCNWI

Ratio and IC50 data for 13 compounds are collected here from ChEMBL document CHEMBL1135375, “Synthesis and biological activities of YkFA analogues: effects of position 4 substitutions and altered ring size on in vitro opioid activity” (Bioorg Med Chem Lett, 2002).

Sequence of Delta-type opioid receptor (P32300 whole entry): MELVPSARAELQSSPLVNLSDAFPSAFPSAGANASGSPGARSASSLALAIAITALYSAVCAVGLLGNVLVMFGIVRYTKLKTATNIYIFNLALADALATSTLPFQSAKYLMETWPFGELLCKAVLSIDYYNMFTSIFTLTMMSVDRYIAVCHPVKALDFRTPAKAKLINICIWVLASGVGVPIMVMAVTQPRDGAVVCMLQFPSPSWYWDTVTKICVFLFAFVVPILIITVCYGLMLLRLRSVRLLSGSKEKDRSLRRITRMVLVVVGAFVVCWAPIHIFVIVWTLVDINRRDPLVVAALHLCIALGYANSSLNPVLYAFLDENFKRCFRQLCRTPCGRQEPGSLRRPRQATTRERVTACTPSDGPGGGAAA

Regarding `C[C@H]1NC(=O)[C@H](Cc2ccccc2)NC(=O)[C@H](CCN)N(C(=O)[C@@H](N)Cc2ccc(O)cc2)C1=O`, in assay [1], the Ratio turned out to be 12.

By IC50 is commonly meant the concentration that inhibits the measured activity by half. As for `C[C@@H]1NC(=O)[C@H](Cc2ccccc2)NC(=O)[C@@H](CCCCN)N(C(=O)[C@@H](N)Cc2ccc(O)cc2)C1=O`, the IC50 in assay [2] was 0.54 nM; on Mu-type opioid receptor, 0.11 nM.

Turning to `NCCCC[C@H]1C(=O)N[C@@H](Cc2ccccc2)C(=O)N[C@H](CC(=O)O)C(=O)N1C(=O)[C@@H](N)Cc1ccc(O)cc1`, the Ratio in assay [1] is 0.94.

Consider `CC[C@H](C)[C@@H]1NC(=O)[C@H](Cc2ccccc2)NC(=O)[C@@H](CCCCN)N(C(=O)[C@@H](N)Cc2ccc(O)cc2)C1=O`, for which the IC50 in assay [2] came out at 6.3 nM; on Mu-type opioid receptor it was 1.1 nM.

`C[C@H]1NC[C@H](Cc2ccccc2)NC(=O)[C@H](CCN)N(C(=O)[C@@H](N)Cc2ccc(O)cc2)C1=O`: the figures for the IC50 (in assay [2]; against Mu-type opioid receptor) were 252 nM and 21.4 nM, respectively. Besides, in assay [1], the Ratio worked out at 12.

For `NCCCC[C@@H]1C(=O)N[C@@H](Cc2ccccc2)C(=O)N[C@@H](CC(=O)O)C(=O)N1C(=O)[C@@H](N)Cc1ccc(O)cc1`, the results for the IC50 (in assay [2]; against Mu-type opioid receptor) were 73.8 nM and 78.8 nM, respectively.

Take `CC(C)[C@@H]1NC(=O)[C@H](Cc2ccccc2)NC(=O)[C@@H](CCCCN)N(C(=O)[C@@H](N)Cc2ccc(O)cc2)C1=O`: the values for the IC50 (in assay [2]; against Mu-type opioid receptor) were 0.44 nM and 0.2 nM, respectively.

Consider `CC(C)C[C@@H]1NC(=O)[C@H](Cc2ccccc2)NC(=O)[C@@H](CCCCN)N(C(=O)[C@@H](N)Cc2ccc(O)cc2)C1=O`, for which the IC50 in assay [2] was found to be 6.2 nM; at Mu-type opioid receptor, 1.4 nM.

Regarding `C[C@@H]1NC(=O)[C@H](Cc2ccccc2)NC(=O)[C@@H](CCN)N(C(=O)[C@@H](N)Cc2ccc(O)cc2)C1=O`, the figures for the IC50 (in assay [2]; on Mu-type opioid receptor) were 40 nM and 3.5 nM, respectively.

In the case of `CC[C@@H](C)[C@H]1NC(=O)[C@H](Cc2ccccc2)NC(=O)[C@H](CCCCN)N(C(=O)[C@@H](N)Cc2ccc(O)cc2)C1=O`, in assay [1], the Ratio stood at 6.

For `CC(C)C[C@H]1NC(=O)[C@H](Cc2ccccc2)NC(=O)[C@H](CCCCN)N(C(=O)[C@@H](N)Cc2ccc(O)cc2)C1=O`, the Ratio in assay [1] turned out to be 4.5.

Regarding `CC(C)[C@H]1NC(=O)[C@H](Cc2ccccc2)NC(=O)[C@H](CCCCN)N(C(=O)[C@@H](N)Cc2ccc(O)cc2)C1=O`, the Ratio in assay [1] was 2.2.

As to `C[C@H]1NC(=O)[C@H](Cc2ccccc2)NC(=O)[C@H](CCCCN)N(C(=O)[C@@H](N)Cc2ccc(O)cc2)C1=O`, the Ratio in assay [1] turned out to be 4.9.
